Source: US20250188092A1, “RIFAMYCIN ANALOGS” (THE REGENTS OF THE UNIVERSITY OF MICHIGAN, priority 2021, published 2025)
≈ marks a conversion by molar mass, not a printed value. Like-named read-outs stand apart in the source and are kept apart here.

What was measured:
[1] = tested on: non-replicating cultures of M. tuberculosis H37Rv transformed with lux ABCDE; assay: microbe, parasite or virus in culture; assay type: cell-based, Mycobacterium tuberculosis; conditions: for MIC90: ≥90% reduction in luminescence, read-out: MIC90 LORA; for MIC90 LORA/MABA: ratio of LORA MIC90 to MABA MIC90
[2] = tested on: M. tuberculosis transformed with luxABCDE; assay: microbe, parasite or virus in culture; assay type: cell-based, Mycobacterium tuberculosis; conditions: for MBC: ≥99% reduction in luminescence, read-out: MBC99 Day 7 (Lux Assay) MBC
[3] = Mycobacterium tuberculosis, H37RV
[4] = Mycobacterium tuberculosis, 168 h

SMILES	MIC90 LORA Rel to RMP [1]	MIC90 [1, 3] [µM]	MIC90 LORA/MABA [1]	MBC99 Day 7 (Lux Assay) MBC Rel to RMP [2]	MBC [2, 4] [µM]	MIC90 [1] [µM]	MBC [2] [µM]
CO[C@H]1/C=C/O[C@@]2(C)Oc3c(C)c(O)c4c(=O)c(c5oc6cc(N7CCN(C(=O)C(C)(C)C)CC7)cc(C)c6nc-5c4c3C2=O)NC(=O)/C(C)=C\C=C\[C@H](C)[C@H](O)[C@@H](C)[C@@H](O)[C@@H](C)[C@H](OC(C)=O)[C@@H]1C [Compound 26f, (7S,9E,11S,12R,13S,14R,15R,16R,17S,18S,19E,21Z)-30-[4-(2,2-Dimethylpropanoyl)piperazin-1-yl]-2,15,17-trihydroxy-11-methoxy-3,7,12,14,16,18,22,32-octamethyl-6,23,37-trioxo-8,27,38-trioxa-24,34-diazahexacyclo[23.11.1.1^4,7.0^5,36.0^26,35.0^28,33]octatriaconta-1(36)2,4,9,19,21,25,28,30,32,34-undecaen-13-yl acetate]	0.05	0.0095	2.1	0.09	0.043		
CO[C@H]1/C=C/O[C@@]2(C)Oc3c(C)c(O)c4c(=O)c(c5oc6cccc(OCc7ccc(CN8CCN(C)CC8)cc7)c6nc-5c4c3C2=O)NC(=O)/C(C)=C\C=C\[C@H](C)[C@H](O)[C@@H](C)[C@@H](O)[C@@H](C)[C@H](OC(C)=O)[C@@H]1C [Compound 16e, (7S,9E,11S,12R,13S,14R,15R,16R,17S,18S,19E,21Z)-2,15,17-trihydroxy-11-methoxy-3,7,12,14,16,18,22-heptamethyl-32-({4-[(4-methylpiperazin-1-yl)methyl]phenyl}methoxy)-6,23,37-trioxo-8,27,38-trioxa-24,34-diazahexacyclo[23.11.1.1^4,7.0^5,36.0^26,35.0^28,33]octatriaconta-1,3,5(36)9,19,21,25,28,30,32,34-undecaen-13-yl acetate]	1.3	0.036	5.6	0.14	0.06		
CO[C@H]1/C=C/O[C@@]2(C)Oc3c(C)c(O)c4c(=O)c(c5oc6cc(C)cc(N7CCN(CCn8ccnc8)CC7)c6nc-5c4c3C2=O)NC(=O)/C(C)=C\C=C\[C@H](C)[C@H](O)[C@@H](C)[C@@H](O)[C@@H](C)[C@H](OC(C)=O)[C@@H]1C [Compound 30e, (7S,9E,11S,12R,13S,14R,15R,16R,17S,18S,19E,21Z)-2,15,17-Trihydroxy-32-{4-[3-(1H-imidazol-1-yl)ethyl]piperazin-1-yl}-11-methoxy-3,7,12,14,16,18,22,30-octamethyl-6,23,37-trioxo-8,27,38-trioxa-24,34-diazahexacyclo[23.11.1.1^4,7.0^5,36.0^26,35.0^28,33]octatriaconta-1(36)2,4,9,19,21,25,28,30,32,34-undecaen-13-yl acetate]	0.87	0.18	2.1	1.06	0.49		
CO[C@H]1/C=C/O[C@@]2(C)Oc3c(C)c(O)c4c(=O)c(c5oc6cc(N7CCN(CC(=O)O)CC7)cc(C)c6nc-5c4c3C2=O)NC(=O)/C(C)=C\C=C\[C@H](C)[C@H](O)[C@@H](C)[C@@H](O)[C@@H](C)[C@H](OC(C)=O)[C@@H]1C [Compound 29h, 2-{4-[(7S,9E,11S,12R,13S,14R,15R,16R,17S,18S,19E,21Z)-13-(acetyloxy)-2,15,17-trihydroxy-11-methoxy-3,7,12,14,16,18,22,32-octamethyl-6,23,37-trioxo-8,27,38-trioxa-24,34-diazahexacyclo[23.11.1.1^4,7.0^5,36.0^26,35.0^28,33]octatriaconta-1,3,5(36)9,19,21,25,28,30,32,34-undecaen-30-yl]piperazin-1-yl}acetic acid]	5.0	0.133 (≈ 0.125 µg/mL)	7.2		> 0.1		
CO[C@H]1/C=C/O[C@@]2(C)Oc3c(C)c(O)c4c(=O)c(c5oc6cc(N7CCN(C(=O)c8ccccc8)CC7)cc(OCc7ccc(CN8CCOCC8)cc7)c6nc-5c4c3C2=O)NC(=O)/C(C)=C\C=C\[C@H](C)[C@H](O)[C@@H](C)[C@@H](O)[C@@H](C)[C@H](OC(C)=O)[C@@H]1C [Compound 17m, (7S,9E,11S,12R,13S,14R,15R,16R,17S,18S,19E,21Z)-30-(4-benzoylpiperazin-1-yl)-2,15,17-trihydroxy-1-methoxy-3,7,12,14,16,18,22-heptamethyl-32-{[4-(morpholin-4-ylmethyl)phenyl]methoxy}-6,23,37-trioxo-8,27,38-trioxa-24,34-diazahexacyclo-[23.11.1.1^4,7.0^5,36.0^26,35.0^28,33]octatriaconta-1,3,5(36)9,19,21,25,28,30,32,34-undecaen-13-yl acetate]	1.4	0.072	4.2	0.48	0.217		
CO[C@H]1/C=C/O[C@@]2(C)Oc3c(C)c(O)c4c(=O)c(c5oc6cc(N7CCN(C(=O)c8ccc(-c9ccc(C(N)=O)cc9)cc8)CC7)cc(OCc7ccc(CN8CCOCC8)cc7)c6nc-5c4c3C2=O)NC(=O)/C(C)=C\C=C\[C@H](C)[C@H](O)[C@@H](C)[C@@H](O)[C@@H](C)[C@H](OC(C)=O)[C@@H]1C [Compound 17t, (7S,9E,11S,12R,13S,14R,15R,16R,17S,18S,19E,21Z)-30-(4-{[4-(4-carbamoylphenyl)-phenyl]carbonyl}piperazin-1-yl)-2,15,17-trihydroxy-11-methoxy-3,7,12,14,16,18,22-heptamethyl-32-{[4-(morpholin-4-ylmethyl)phenyl]methoxy}-6,23,37-trioxo-8,27,38-trioxa-24,34-diazahexacyclo[23.11.1.1^4,7.0^5,36.0^26,35.0^28,33]octatriaconta-1,3,5(36)9,19,21,25,28,30,32,34-undecaen-13-yl acetate]	1.2		1.8	0.12		0.059	0.086
CO[C@H]1/C=C/O[C@@]2(C)Oc3c(C)c(O)c4c(=O)c(c5oc6cc(N7CCN(C8CCN(C)CC8)CC7)cc(OCc7ccc(CN8CCOCC8)cc7)c6nc-5c4c3C2=O)NC(=O)/C(C)=C\C=C\[C@H](C)[C@H](O)[C@@H](C)[C@@H](O)[C@@H](C)[C@H](OC(C)=O)[C@@H]1C [Compound 17h, (7S,9E,11S,12R,13S,14R,15R,16R,17S,18S,19E,21Z)-2,15,17-trihydroxy-11-methoxy-3,7,12,14,16,18,22-heptamethyl-30-[4-(1-methylpiperidin-4-yl)piperazin-1-yl]-32-{[4-(morpholin-4-ylmethyl)phenyl]methoxy}-6,23,37-trioxo-8,27,38-trioxa-24,34-diazahexacyclo-[23.11.1.1^4,7.0^5,36.0^26,35.0^28,33]octatriaconta-1,3,5(36)9,19,21,25,28,30,32,34-undecaen-13-yl acetate]	12	0.318	9.0		> 0.1		
CO[C@H]1/C=C/O[C@@]2(C)Oc3c(C)c(O)c4c(=O)c(c5oc6cc(N7CCC(C(=O)O)CC7)cc(OCc7ccc(CN8CCN(C)CC8)cc7)c6nc-5c4c3C2=O)NC(=O)/C(C)=C\C=C\[C@H](C)[C@H](O)[C@@H](C)[C@@H](O)[C@@H](C)[C@H](OC(C)=O)[C@@H]1C [Compound 17q, 1-[(7S,9E,11S,12R,13S,14R,15R,16R,17S,18S,19E,21Z)-13-(acetyloxy)-2,15,17-trihydroxy-11-methoxy-3,7,12,14,16,18,22-heptamethyl-32-({4-[(4-methylpiperazin-1-yl)methyl]phenyl}methoxy)-6,23,37-trioxo-8,27,38-trioxa-24,34-diazahexacyclo-[23.11.1.1^4,7.0^5,36.0^26,35.0^28,33]-octatriaconta-1,3,5(36)9,19,21,25,28,30,32,34-undecaen-30-yl]piperidine-4-carboxylic acid]		> 0.02			> 0.1		
CO[C@H]1/C=C/O[C@@]2(C)Oc3c(C)c(O)c4c(=O)c(c5oc6cccc(OCc7ccc(CN8CCOCC8)cc7)c6nc-5c4c3C2=O)NC(=O)/C(C)=C\C=C\[C@H](C)[C@H](O)[C@@H](C)[C@@H](O)[C@@H](C)[C@H](OC(C)=O)[C@@H]1C [Compound 16d, (7S,9E,11S,12R,13S,14R,15R,16R,17S,18S,19E,21Z)-2,15,17-Trihydroxy-11-methoxy-3,7,12,14,16,18,22-heptamethyl-32-({4-[(morpholin-4-yl)methyl]phenyl}methoxy)-6,23,37-trioxo-8,27,38-trioxa-24,34-diazahexacyclo[23.11.1.1^4,7.0^5,36.0^26,35.0^28,33]octatriaconta-1(36)2,4,9,19,21,25,28,30,32,34-undecaen-13-yl acetate]	0.62	0.031	8.4	0.20	0.092		
CO[C@H]1/C=C/O[C@@]2(C)Oc3c(C)c(O)c4c(=O)c(c5oc6cc(N7CCC(CC(=O)O)CC7)cc(C)c6nc-5c4c3C2=O)NC(=O)/C(C)=C\C=C\[C@H](C)[C@H](O)[C@@H](C)[C@@H](O)[C@@H](C)[C@H](OC(C)=O)[C@@H]1C [Compound 29g, 2-{4-[(7S,9E,11S,12R,13S,14R,15R,16R,17S,18S,19E,21Z)-13-(acetyloxy)-2,15,17-trihydroxy-11-methoxy-3,7,12,14,16,18,22,32-octamethyl-6,23,37-trioxo-8,27,38-trioxa-24,34-diazahexacyclo[23.11.1.1^4,7.0^5,36.0^26,35.0^28,33]octatriaconta-1,3,5(36)9,19,21,25,28,30,32,34-undecaen-30-yl]piperidin-4-yl}acetic acid]	10	0.28 (≈ 0.263 µg/mL)	5.4		> 0.1		
